Experimental data as given in US5591763A, “treatments for diseases characterized by neovascularization” (President and Fellows of Harvard College, priority 1995, dated 1997).
“Also recorded” adds a separate entry of the source. Like-named read-outs stand apart in the source and are kept apart here.

Experiments:
endothelial cells = experiment: Proliferation of endothelial cells (general statement); type: cell-based
[1] = test system: vascular smooth muscle cells; experiment: Proliferation/growth of vascular smooth muscle cells (general statement); type: cell-based
[2] = test system: rat vascular smooth muscle cells; experiment: cells; type: cell-based
Protocol: DNA synthesis assessed by the uptake of [3H]thymidine: Cells are grown in either 48 or 96 wells plates (Costar, Cambridge, Mass.) at 104 and 0.8 10^3 cells per well, respectively, and grown in Dubelcco's modified Eagle's medium (DME, Gibco, Grand Island, N.Y.) supplemented with 10% heat-inactivated calf serum; they are kept at 37° C. in 5% CO2. When they reach confluence, usually between 3 and 4 days, the medium is replaced with DME 0.5% serum to make them quiescent, and mitogenesis assays are performed 24 hours later.
Quiescent cells are exposed to a mitogenic stimulus, such as 10% serum, PDGF (Sigma Co. St. Louis, Mo.), bFGF (Upstate Biotechnologies, Lake Placid, N.Y.), or other appropriate mitogen according to the cell line, and 3 hours later 1 μCi/ml of [3H]thymidine (Dupont, Billerica, Mass. ) is added to the wells, and the cells maintained at 37° C./5% CO2 for additional 21 hours. Then the cells are washed 3 times with DME medium and the acid-precipitable radioactivity is extracted with cold 10% TCA (Sigma, Co). After neutralization with 0.3 N NaOH (Sigma Co.), aliquots are counted in a Packard Tri-Carb Scintillation counter (Packard Instrument, Downer's Grove, Ill.).
Rat vascular smooth muscle cells (murine cell line): Quiescent cells were stimulated with purified growth factors (PDGF and bFGF, […]) and synthesis of DNA was assessed by the incorporation of [3H]thymidine measured 24 hours later.
Cells were stimulated using […] bFGF. […] (FIG. 2)
Other antimycotics were tested for their inhibition of bFGF-stimulated DNA synthesis in rat vascular smooth muscle cells.

[3] = test system: bovine endothelial (BAEC); experiment: Cell growth (surface of culture flask covered by cell monolayer), bovine endothelial cells; type: cell-based; settings: 10 μM, 48 hs, without CLT 90±2%
Protocol: (§1) Measurement of cell density in culture plates: Cells of a specific test cell line are seeded at precisely the same low density in culture plates and incubated for approximately 12 hours in DME 10% serum, or other culture medium depending on the cell line tested. […] Alternatively, the cells can be detached from the plate by incubation with trypsin (Sigma, Co.) […] in ethylene diaminotetraacetic acid (ECTA; Sigma, Co); then the cells are counted in an hemocytometer chamber (Fisher, Pittsburgh, Pa.).
(§2) Bovine endothelial (BAEC) and human umbilical vein (HUVEC): Cells were seeded at a low density (2.5×10^5) in cell culture flasks (75 ml flasks) containing DME 10% calf serum (BAEC) or fetal calf serum (HUVEC); after 12 hs, when the cells were attached to the surface of the flasks, CLT (10 μM) or carrier (ethanol) were added to triplicate flasks. After 48 hs cell growth was assessed by optic miscroscopy calculating the surface of the culture flask covered by the cell monolayer.

[4] = test system: human umbilical vein (HUVEC); experiment: Cell growth (surface of culture flask covered by cell monolayer), human umbilical vein cells; type: cell-based; settings: 10 μM, 48 hs, without CLT 90±2%
Protocol: as §1, §2

[5] = target: T1, Ca^++ activated K channel of human erythrocytes (Homo sapiens, UniProt O15554); experiment: Inhibition of Ca++ activated K channel of human erythrocytes, 86Rb influx; type: biochemical; settings: for Order of inhibitory potency, Ca++ activated 86Rb influx / Inhibition of Ca++ activated 86Rb influx by other antimycotics: human erythrocytes; for Inhibition of Ca++ activated 86Rb influx by other antimycotics: FIG. 4
T1 construct: Preparation of Human Red Blood Cells: Blood is collected in heparinized tubes; endogenous in cells; host or cells: washed human erythrocytes (red blood cells from heparinized blood)
Protocol: (§3) Preparation of Human Red Blood Cells: Blood is collected in heparinized tubes and centrifuged in a Sorvall centrifuge (RB 5B, Du Pont Instruments,Newtown, Conn.) at 5° C. for 10 minutes at 3000 g. Plasma and buffy coat are carefully removed and the cells washed four times with a washing solution containing 150 mM choline chloride (Sigma Co), 1 mM MgCl2 (Sigma Co),10mM Tris-MOPS (Sigma, Calif.), pH 7.4 at 4° C.(CWS). An aliquot of cells is then suspended in an approximately equal volume of CWS, and from this original cell suspension hematocrit (Hct) and hemoglobin (optical density at 540 nm) are determined.
Methods to Test Inhibitors of the Ca^++ Activated K channel: To test inhibitors of the Ca^++ activated K channel, the channel is activated using the calcium ionophore A23187 (Calbiochem).
By radioisotopic measurement of ^86 Rb influx. The incubation medium is the same but contains 2 mM KCl and 1 μCi/ml of the radioactive tracer ^86 Rb. After spinning the samples through the phthalate layer, the tubes are rapidly frozen (-80° C.) by immersion in methanol-dry ice, the tips of the tubes containing the packed red cells cut, and counted in a Packard Gamma Counter.
(§4) The inhibitory effect of (CLT) on the Ca^++ activated K channel of human erythrocytes was assessed in the presence of 60 μmol A23187/L cell and 100 μMCaCl2.
Other antimycotics were tested for their inhibition of the Ca++ activated 86Rb influx human erythrocytes.

[6] = target: T1, Ca^++ activated K channel of human erythrocytes; experiment: Inhibition of Ca++ activated K channel of human erythrocytes, K efflux; type: biochemical; settings: 60 μmol A23187/L cell, 100 μM CaCl2
Description: Ca^++ -sensitive K+ channels have wide distribution among cells, including the human red cell where they were originally discovered and which is the most commonly utilized assay system for activators and inhibitors of the channel for the following reasons: they are readily available, can be easily manipulated in the laboratory, and transport assays can be accurately standardized by reading the hemoglobin concentration of a red cell suspension.
as §3, with “determined. […]” for “determined.”
as §4

Swiss 3T3 cells = experiment: Proliferative response to mitogens released from MAC-treated endothelial cells, 3T3 cells; type: cell-based; settings: 10 μM CLT; quiescent 3T3 cells; conditioned media from MAC treated EC; FIG. 5
Protocol: (§5) CLT inhibits the mitogenic activity released from endothelial cells by activated component. When endothelial cells (EC) in culture (both BAEC and HUVEC) are treated with terminal complement components to form the MAC (membrane attack complex of complement), they release into the culture medium a potent mitogenic activity that stimulates the proliferation of quiescent cells used as indicators of the mitogens. Both, quiescent Swiss 3T3 and vascular smooth muscle cells are stimulated by the mitogens released form EC in response to the MAC (FIG. 5; Halperin et al. unpublished observation). Moreover, immunoprecipitation with specific antibodies has documented that both PDGF and bFGF released from the EC contribute in approximately equal proportion to the mitogenic activity induced by the MAC (data not shown).
(§6) To determine whether CLT inhibited the cell proliferative activity released by the MAC from EC, quiescent 3T3 and vascular smooth muscle cells were stimulated in the presence and absence of 10 μM CLT with conditioned media obtained from MAC treated EC.

[7] = test system: vascular smooth muscle cells; experiment: Proliferative response to mitogens released from MAC-treated endothelial cells, vascular smooth muscle cells; type: cell-based; settings: 10 μM CLT; quiescent vascular smooth muscle cells; conditioned media from MAC treated EC; FIG. 5
Protocol: as §5, §6

epidermal cells = experiment: Growth of epidermal cells (general statement); type: cell-based
[8] = hormonal adjuvant for prostate cancer; cited from earlier work
17-20 desmolase = settings: cited from earlier work
17-hydroxylase = settings: cited from earlier work
[9] = test system: 21- and/or 11-hydroxylase; settings: cited from earlier work

Q: For `N=C(N)NC(=O)c1nc(Cl)c(N)nc1N` [amiloride], which “Inhibition of proliferation of endothelial cells” value (“Inhibition … of endothelial cells” below) (endothelial cells) is on record?
A: do not inhibit cell proliferation

Q: And the “Inhibition of proliferation/growth of vascular smooth muscle cells” value [1]?
A: do not inhibit cell proliferation

Q: For `Clc1ccccc1C(c1ccccc1)(c1ccccc1)n1ccnc1` [clotrimazole], which “Dose response of inhibition of DNA synthesis” value [2] is on record?
A: dose dependent

Q: What about the “Inhibition of DNA synthesis” value [2] of the same compound?
A: complete inhibition

Q: What about the “Inhibition of PDGF stimulated DNA synthesis” value [2] of the same compound?
A: completely inhibited

Q: What about the “Inhibition of bFGF stimulated DNA synthesis” value [2] of the same compound?
A: completely inhibited

Q: And the “Inhibition of bFGF-stimulated DNA synthesis” value [2]?
A: inhibited DNA synthesis

Q: And the “Order of inhibitory potency, bFGF-stimulated DNA synthesis” value [2]?
A: CLT more potent than ECZ

Q: And the “Reversibility of the inhibition of DNA synthesis” value [2]?
A: reversed by removing CLT

Q: And the inhibition at 1 µM ([2]; Rattus norvegicus, read-out: Inhibition of DNA synthesis)?
A: 45%

Q: And the “Flask surface covered by cells in the presence of CLT” value [3]?
A: less than 10%

Q: What about the “Flask surface covered by cells in the presence of CLT” value [4] of the same compound?
A: less than 10%

Q: What about the “Inhibition of Ca^++ activated 86Rb influx” value ([5]; 60 μmol A23187/L cell, 100 μM CaCl2) of the same compound?
A: markedly inhibited

Q: And the “Order of inhibitory potency, Ca++ activated 86Rb influx” value [5]?
A: clotrimazole more than miconazole

Q: And the “Inhibition of Ca^++ activated K efflux” value [6]?
A: markedly inhibited

Q: What about the “Inhibition of proliferative response to mitogens released from EC” value (Swiss 3T3 cells) of the same compound?
A: completely inhibited

Q: What about the “Inhibition of proliferative response to mitogens released from EC” value [7] of the same compound?
A: completely inhibited

Q: Which “Order of inhibitory potency, bFGF-stimulated DNA synthesis” value ([2]; 10 μM, FIG. 3) does the source give for `Clc1ccc(COC(Cn2ccnc2)c2ccc(Cl)cc2Cl)cc1` (stereo not drawn) [econazole] here?
A: ECZ more potent than MCZ

Q: What about the “Inhibition of bFGF-stimulated DNA synthesis” value ([2]; antimycotics at 10 μM, FIG. 3) of the same compound?
A: inhibited DNA synthesis

Q: What about the “Order of inhibitory potency, Ca++ activated 86Rb influx” value [5] of the same compound?
A: both of these were more than econazole

Q: For `OC(Cn1cncn1)(Cn1cncn1)c1ccc(F)cc1F` [fluconazole], which “Inhibition of Ca++ activated 86Rb influx by other antimycotics” value (shortened to “Inhibition of Ca++ activated 86Rb influx”) [5] is on record?
A: no inhibition

Q: With `CC(=O)N1CCN(c2ccc(OCC3COC(Cn4ccnc4)(c4ccc(Cl)cc4Cl)O3)cc2)CC1` (stereo not drawn) [ketoconazole] as the compound, how does the “Inhibition … of endothelial cells” value (endothelial cells) read?
A: not useful for inhibiting

Q: What about the “Inhibition of proliferation/growth of vascular smooth muscle cells” value [1] of the same compound?
A: not useful for inhibiting; also recorded: ineffective

Q: What about the “Inhibition of growth of epidermal cells” value (epidermal cells) of the same compound?
A: ineffective

Q: And the Plasma testosterone reduction [8]?
A: reduces plasma testosterone to castration levels

Q: And the “Inhibition of 17-20 desmolase” value (17-20 desmolase)?
A: inhibition

Q: What about the “Blockade of 17-hydroxylase” value (17-hydroxylase) of the same compound?
A: partial blockade

Q: What about the “Inhibition of 21- and/or 11-hydroxylase” value [9] of the same compound?
A: marked inhibition

Q: Which “Inhibition of Ca++ activated 86Rb influx” value [5] does the source give for `Cc1ncc([N+](=O)[O-])n1CCO` [metronidazole] here?
A: only marginal

Q: For `Clc1ccc(COC(Cn2ccnc2)c2ccc(Cl)cc2Cl)c(Cl)c1` (stereo not drawn) [miconazole], which “Order of inhibitory potency, bFGF-stimulated DNA synthesis” value ([2]; 10 μM, FIG. 3) is on record?
A: ECZ more potent than MCZ

Q: And the “Inhibition of bFGF-stimulated DNA synthesis” value ([2]; antimycotics at 10 μM, FIG. 3)?
A: inhibited DNA synthesis

Q: What about the “Order of inhibitory potency, Ca++ activated 86Rb influx” value [5] of the same compound?
A: both of these were more than econazole

Q: Which “Inhibition of Ca++ activated 86Rb influx” value [5] does the source give for `Cc1ncc([N+](=O)[O-])n1CC(O)CCl` (stereo not drawn) [ornidazole] here?
A: no inhibition

Q: With `C[C@@H]1O[C@@H](O[C@H]2C[C@@H](O)[C@]3(CO)[C@H]4[C@H](O)C[C@]5(C)[C@@H](C6=CC(=O)OC6)CC[C@]5(O)[C@@H]4CC[C@]3(O)C2)[C@H](O)[C@H](O)[C@H]1O` [ouabain] as the compound, how does the “Inhibition … of endothelial cells” value (endothelial cells) read?
A: do not inhibit cell proliferation

Q: And the “Inhibition of proliferation/growth of vascular smooth muscle cells” value [1]?
A: do not inhibit cell proliferation

Q: For `CCS(=O)(=O)CCn1c([N+](=O)[O-])cnc1C` [tinidazole], which “Inhibition of Ca++ activated 86Rb influx” value [5] is on record?
A: no inhibition

Q: For charybdotoxin, which “Inhibition of DNA synthesis by other inhibitors of the Ca^++ activated K channel” value ([2]; FIG. 3) is on record?
A: failed to inhibit DNA synthesis

Q: And the “Inhibition … of endothelial cells” value (endothelial cells)?
A: do not inhibit proliferation

Q: And the “Inhibition of proliferation/growth of vascular smooth muscle cells” value [1]?
A: do not inhibit proliferation

Q: What does the source list for “iberiotoxin (QFTDVDCSVSKECWSVCKDLFGVDRGKCMGKKCRCYQ; UniProt P24663 1-37, looked up)”?
A: Inhibition of DNA synthesis by other inhibitors of the Ca^++ activated K channel ([2]; FIG. 3): failed to inhibit DNA synthesis; Inhibition of proliferation of endothelial cells (endothelial cells): do not inhibit proliferation; Inhibition of proliferation/growth of vascular smooth muscle cells [1]: do not inhibit proliferation

Q: Which results are given for “kaliotoxin: specific inhibitor of the Ca^++ activated potassium channel”?
A: Inhibition of DNA synthesis by other inhibitors of the Ca^++ activated K channel ([2]; FIG. 3): failed to inhibit DNA synthesis; Inhibition of proliferation of endothelial cells (endothelial cells): do not inhibit proliferation; Inhibition of proliferation/growth of vascular smooth muscle cells [1]: do not inhibit proliferation
